# Laboratory results from BindingDB's records for doi:10.1021/jm8005433 (A* Star, 2008).
# Target: Bcl-2-like protein 1 (Homo sapiens, UniProt Q07817)
# Experiment: Fluorescence Polarization Assay
# Conditions: pH 8; 22 °C
# Description: In the fluorescence polarization assay, the Bcl-XL protein is incubated with a fluorescein-tagged Bak-BH3 peptide. The Bcl-XL:Bak-BH3 peptide complex is then titrated with the test compounds, and the displacement of the Bak-BH3 peptide is measured as a function of decreasing polarized fluorescence. The fluorescence polarization values were determined using a Tecan GeniosPro plate reader using the excitation/emission wavelengths 485/535 nm. The binding affinities are reported as the inhibitory concentration of the titrant required to displace 50% of the Bak-BH3 peptide (IC50).
# Bcl-2-like protein 1, sequence (Q07817 whole entry): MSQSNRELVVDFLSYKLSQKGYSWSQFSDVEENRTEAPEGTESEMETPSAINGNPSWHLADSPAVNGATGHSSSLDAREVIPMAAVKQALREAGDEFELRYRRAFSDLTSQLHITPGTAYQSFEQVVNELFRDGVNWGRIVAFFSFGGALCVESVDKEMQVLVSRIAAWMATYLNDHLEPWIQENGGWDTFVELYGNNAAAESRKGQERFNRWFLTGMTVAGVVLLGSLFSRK
row,SMILES,IC50 [µM]
1,"COCc1ccc2c(c1)c1ccc3c(c1c[n+]2C)OCO3 [4-(methoxymethyl)-8-methyl-12,14-dioxa-8-azatetracyclo[8.7.0.0^{2,7}.0^{11,15}]heptadeca-1(10),2(7),3,5,8,11(15),16-heptaen-8-ium chloride]",11
2,"CC1(C)Oc2ccc3c(c[n+]([O-])c4ccccc34)c2O1 [13,13-dimethyl-8-oxido-12,14-dioxa-8-azatetracyclo[8.7.0.0^{2,7}.0^{11,15}]heptadeca-1(10),2(7),3,5,8,11(15),16-heptaen-8-ium]",> 100
3,"COc1ccc2c(c[n+]([O-])c3ccccc23)c1OC [7,8-dimethoxy-5-oxidophenanthridin-5-ium]",> 100
4,"C[n+]1cc2c3c(ccc2c2ccccc21)OCO3 [8-methyl-12,14-dioxa-8-azatetracyclo[8.7.0.0^{2,7}.0^{11,15}]heptadeca-1(10),2(7),3,5,8,11(15),16-heptaen-8-ium iodide]",12
5,"COc1ccc2c(c[n+](C)c3ccccc23)c1OC [7,8-dimethoxy-5-methylphenanthridin-5-ium iodide]",> 100
6,"COc1ccc2c(c[n+](C)c3ccc(CO)cc23)c1OC [2-(hydroxymethyl)-7,8-dimethoxy-5-methylphenanthridin-5-ium chloride]",> 100
7,"Cn1cc2c(=O)c(O)ccc-2c2ccccc21 [7,8-dihydroxy-5-methylphenanthridin-5-ium chloride]",18
8,"C[n+]1cc2c3c(ccc2c2cc(CO)ccc21)OCO3 [4-(hydroxymethyl)-8-methyl-12,14-dioxa-8-azatetracyclo[8.7.0.0^{2,7}.0^{11,15}]heptadeca-1(10),2(7),3,5,8,11(15),16-heptaen-8-ium chloride]",11
9,"Cn1cc2c(=O)c(O)ccc-2c2cc(CCO)ccc21 [7,8-dihydroxy-2-(2-hydroxyethyl)-5-methylphenanthridin-5-ium chloride]",22
10,"C[n+]1cc2c3c(ccc2c2cc(CCO)ccc21)OCO3 [4-(2-hydroxyethyl)-8-methyl-12,14-dioxa-8-azatetracyclo[8.7.0.0^{2,7}.0^{11,15}]heptadeca-1(10),2(7),3,5,8,11(15),16-heptaen-8-ium chloride]",3
11,"COCCc1ccc2c(c1)c1ccc3c(c1c[n+]2C)OCO3 [4-(2-methoxyethyl)-8-methyl-12,14-dioxa-8-azatetracyclo[8.7.0.0^{2,7}.0^{11,15}]heptadeca-1(10),2(7),3,5,8,11(15),16-heptaen-8-ium chloride]",6
12,C[n+]1cc2c3c(ccc2c2ccc4cc5c(cc4c21)OCO5)OCO3,19
13,COc1ccc2c(c[n+](C)c3c4cc5c(cc4ccc23)OCO5)c1OC,100
14,"Cn1cc2c(=O)c(O)ccc-2c2cc(CO)ccc21 [7,8-dihydroxy-2-(hydroxymethyl)-5-methylphenanthridin-5-ium chloride]",20
15,"[O-][n+]1cc2c3c(ccc2c2ccccc21)OCO3 [8-oxido-12,14-dioxa-8-azatetracyclo[8.7.0.0^{2,7}.0^{11,15}]heptadeca-1(10),2(7),3,5,8,11(15),16-heptaen-8-ium]",> 100
16,"C[n+]1cc2c3c(ccc2c2ccccc21)OC(C)(C)O3 [8,13,13-trimethyl-12,14-dioxa-8-azatetracyclo[8.7.0.0^{2,7}.0^{11,15}]heptadeca-1(10),2(7),3,5,8,11(15),16-heptaen-8-ium iodide]",> 100
